Experimental findings from patent US8354422B2, “Pyrimidine inhibitors of kinase activity” (Abbott Laboratories Inc., priority 2009, dated 2013) are described below.

For orientation: IC50 means the concentration that inhibits the measured activity by half.

SMILES strings stand for the structures.

T1 sequence (P08069 954-1367): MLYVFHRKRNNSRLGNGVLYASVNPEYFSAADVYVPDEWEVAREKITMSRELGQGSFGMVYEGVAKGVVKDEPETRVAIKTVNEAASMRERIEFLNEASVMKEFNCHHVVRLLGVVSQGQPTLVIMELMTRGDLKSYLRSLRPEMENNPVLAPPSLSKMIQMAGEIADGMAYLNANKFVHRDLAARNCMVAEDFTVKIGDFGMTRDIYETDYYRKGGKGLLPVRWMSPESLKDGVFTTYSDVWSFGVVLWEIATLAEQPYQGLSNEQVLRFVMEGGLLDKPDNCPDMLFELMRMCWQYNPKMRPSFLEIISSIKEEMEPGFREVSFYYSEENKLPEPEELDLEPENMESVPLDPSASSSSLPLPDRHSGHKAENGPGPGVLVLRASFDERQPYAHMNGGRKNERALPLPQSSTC

This test addresses T1, C-terminal GST-tagged, recombinant, human IGF-1R, amino acids 954-1367 (Homo sapiens, UniProt P08069).
T1 construct: human IGF-1R, amino acids 954-1367 expressed by baculovirus in Sf21 cells; GST (C); purchased Cell Signaling Technology; host or cells: baculovirus in Sf21 cells
Kind of test: IGF-1R kinase activity, homogenous time-resolved fluorescence (HTRF) in vitro kinase assay. The format is biochemical. As to conditions: IGF-1R kinase HTRF assay, ATP 50 μM, biotinylated peptide substrate 0.5 μM, 60 minutes at room temperature. The method, then:
IGF-1R kinase activity was assayed by a homogenous time-resolved fluorescence (HTRF) in vitro kinase assay (Mathis, G., HTRF(R) Technology. J Biomol Screen, 1999. 4(6): p. 309-314). Specifically, 10 μL C-terminal GST-tagged, recombinant, human IGF-1R, amino acids 954-1367 expressed by baculovirus in Sf21 cells (Cell Singaling Technology) was mixed with 10 μL inhibitor (various concentrations, 2% final DMSO) and 10 μL of ATP (50 μM final concentration) in reaction buffer (50 mM HEPES, pH […], 2 mM MnCl2, 0.1% BSA and 1 mM DTT, 40 μL final volume). The reaction was initiated by addition of 10 μL of biotinylated peptide substrate (Biotin-Ahx-[…], 0.5 μM final concentration) in a black 384-well plate (Packard). After 60 minutes incubation at room temperature, the reaction was quenched by addition of 60 μL stop/revelation buffer to give 30 mM EDTA, 1 μg/mL streptavidin-APC (Prozyme), 50 ng/mL anti-phosphotyrosine mAb PT66-K Europium Cryptate, 30 mM HEPES, pH 7.5, 120 mM KF, 0.005% Tween-20, 0.05% BSA). The quenched reaction was allowed to stand at room temperature for 1 hour and then read in a time-resolved fluorescence detector (Envision, Perkin Elmer) at 615 nm and 665 nm simultaneously. The ratio between the signal of 615 nm and 665 nm was used in the calculation of the IC50.
In general terms: TR-FRET usually uses a lanthanide donor and a delayed reading to cut background.
Consider `COc1cc(-c2nc3ccccn3c2-c2ccnc(Nc3cnn(CCN4CCOCC4)c3)n2)ccc1OCc1ccccc1` [Example 55, 4-{2-[4-(benzyloxy)-3-methoxyphenyl]imidazo[1,2-a]pyridin-3-yl}-N-[1-(2-morpholin-4-ylethyl)-1H-pyrazol-4-yl]pyrimidin-2-amine], for which the IC50 is 25 to 100 nM. The result for `COc1cc(N2CCC(N3CCSCC3)CC2)ccc1Nc1nccc(-c2c(-c3ccc(OCc4ccccc4)c(OC)c3)nc3ccccn23)n1` [Example 56, 4-{2-[4-(benzyloxy)-3-methoxyphenyl]imidazo[1,2-a]pyridin-3-yl}-N-[2-methoxy-4-(4-thiomorpholin-4-ylpiperidin-1-yl)phenyl]pyrimidin-2-amine] reads 101 to 500 nM; that for `COc1cc(C2CCNCC2)ccc1Nc1nccc(-c2c(-c3ccc(OCc4ccccc4)c(OC)c3)nc3ccccn23)n1` [Example 57, 4-{2-[4-(benzyloxy)-3-methoxyphenyl]imidazo[1,2-a]pyridin-3-yl}-N-(2-methoxy-4-piperidin-4-ylphenyl)pyrimidin-2-amine], below 25 nM; that for `FC(F)(F)Oc1cc(-c2nc3ccccn3c2-c2ccnc(Nc3cccc(CCN4CCCC4)c3)n2)ccc1OCc1ccccc1` [Example 58, 4-{2-[4-(benzyloxy)-3-(trifluoromethoxy)phenyl]imidazo[1,2-a]pyridin-3-yl}-N-[3-(2-pyrrolidin-1-ylethyl)phenyl]pyrimidin-2-amine], above 1000 nM. Then `COc1ccc(CCN(C)C)cc1Nc1nccc(-c2c(-c3ccc(OCc4ccccc4)c(OC)c3)nc3ccccn23)n1` [Example 59, 4-{2-[4-(benzyloxy)-3-methoxyphenyl]imidazo[1,2-a]pyridin-3-yl}-N-{5-[2-(dimethylamino)ethyl]-2-methoxyphenyl}pyrimidin-2-amine], with 25 to 100 nM; and `COc1cc(-c2nc3ccccn3c2-c2ccnc(Nc3ccc4c(c3)CN(C)CC4)n2)ccc1OCc1ccccc1` [Example 60, N-(4-{2-[4-(benzyloxy)-3-methoxyphenyl]imidazo[1,2-a]pyridin-3-yl}pyrimidin-2-yl)-2-methyl-1,2,3,4-tetrahydroisoquinolin-7-amine], with 25 to 100 nM. Then `COc1cc(-c2nc3ccccn3c2-c2ccnc(Nc3ccc4c(c3)CCNC4)n2)ccc1OCc1ccccc1` [Example 61, N-(4-{2-[4-(benzyloxy)-3-methoxyphenyl]imidazo[1,2-a]pyridin-3-yl}pyrimidin-2-yl)-1,2,3,4-tetrahydroisoquinolin-6-amine], with below 25 nM; and `COc1cc(-c2nc3ccccn3c2-c2ccnc(Nc3ccc4c(c3)CNCC4)n2)ccc1OCc1ccccc1` [Example 62, N-(4-{2-[4-(benzyloxy)-3-methoxyphenyl]imidazo[1,2-a]pyridin-3-yl}pyrimidin-2-yl)-1,2,3,4-tetrahydroisoquinolin-7-amine], with 25 to 100 nM. As to `COc1cc(N2CCS(=O)(=O)CC2)ccc1Nc1nccc(-c2c(-c3ccc(OCc4ccccc4)c(OC)c3)nc3ccccn23)n1` [Example 63, 4-{2-[4-(benzyloxy)-3-methoxyphenyl]imidazo[1,2-a]pyridin-3-yl}-N-[4-(1,1-dioxidothiomorpholin-4-yl)-2-methoxyphenyl]pyrimidin-2-amine], the IC50 fell in the range of 25 to 100 nM. With `COc1ccc(CN(C)CCO)cc1Nc1nccc(-c2c(-c3ccc(OCc4ccccc4)c(OC)c3)nc3ccccn23)n1` [Example 64, 2-[{3-[(4-{2-[4-(benzyloxy)-3-methoxyphenyl]imidazo[1,2-a]pyridin-3-yl}pyrimidin-2-yl)amino]-4-methoxybenzyl}(methyl)amino]ethanol], the IC50 fell in the range of 101 to 500 nM. Take `COc1cc(-c2nc3ccccn3c2-c2ccnc(Nc3ccc(NC(=O)CN(C)C)cc3)n2)ccc1OCc1ccccc1` [Example 65, N^1-{4-[(4-{2-[4-(benzyloxy)-3-methoxyphenyl]imidazo[1,2-a]pyridin-3-yl}pyrimidin-2-yl)amino]phenyl}-N^2,N^2-dimethylglycinamide]: the IC50 was 25 to 100 nM. The result for `COc1cc(-c2nc3ccccn3c2-c2ccnc(Nc3cccc(NC(=O)CN(C)C)c3)n2)ccc1OCc1ccccc1` [Example 66, N^1-{3-[(4-{2-[4-(benzyloxy)-3-methoxyphenyl]imidazo[1,2-a]pyridin-3-yl}pyrimidin-2-yl)amino]phenyl}-N^2,N^2-dimethylglycinamide] reads 25 to 100 nM. Then `CN(C)CC(=O)Nc1cccc(Nc2nccc(-c3c(-c4ccc(OCc5ccccc5)cc4)nc4ccccn34)n2)c1` [Example 67, N^1-{3-[(4-{2-[4-(benzyloxy)phenyl]imidazo[1,2-a]pyridin-3-yl}pyrimidin-2-yl)amino]phenyl}-N^2,N^2-dimethylglycinamide], with 101 to 500 nM; and `Cc1cc(-c2nc3ccccn3c2-c2ccnc(Nc3cccc(CCN(C)C)c3)n2)ccc1OCc1ccccc1` [Example 68, 4-{2-[4-(benzyloxy)-3-methylphenyl]imidazo[1,2-a]pyridin-3-yl}-N-{3-[2-(dimethylamino)ethyl]phenyl}pyrimidin-2-amine], with 501 to 1000 nM. Then `COc1cc(-c2nc3ccccn3c2-c2ccnc(Nc3ccc(CCN(C)C)cc3)n2)ccc1OCc1ccccc1` [Example 69, 4-{2-[4-(benzyloxy)-3-methoxyphenyl]imidazo[1,2-a]pyridin-3-yl}-N-{4-[2-(dimethylamino)ethyl]phenyl}pyrimidin-2-amine], with below 25 nM; and `COc1cc(-c2nc3ccccn3c2-c2ccnc(Nc3cccc(CN4CCC(O)C4)c3)n2)ccc1OCc1ccccc1` (stereo not shown) [Example 70, 1-{3-[(4-{2-[4-(benzyloxy)-3-methoxyphenyl]imidazo[1,2-a]pyridin-3-yl}pyrimidin-2-yl)amino]benzyl}pyrrolidin-3-ol], with 25 to 100 nM; and `COc1ccc(NC(=O)CN(C)C)cc1Nc1nccc(-c2c(-c3ccc(OCc4ccccc4)c(OC)c3)nc3ccccn23)n1` [Example 71, N^1-{3-[(4-{2-[4-(benzyloxy)-3-methoxyphenyl]imidazo[1,2-a]pyridin-3-yl}pyrimidin-2-yl)amino]-4-methoxyphenyl}-N^2,N^2-dimethylglycinamide], with below 25 nM.

As to `COc1ccc(NC(=O)CN(C)C)cc1Nc1nccc(-c2c(-c3ccc(OCc4ccccc4)cc3)nc3ccccn23)n1` [Example 72, N^1-{3-[(4-{2-[4-(benzyloxy)phenyl]imidazo[1,2-a]pyridin-3-yl}pyrimidin-2-yl)amino]-4-methoxyphenyl}-N^2,N^2-dimethylglycinamide], the IC50 was below 25 nM. The result for `COc1ccc(N2CCSCC2)cc1Nc1nccc(-c2c(-c3ccc(OCc4ccccc4)c(OC)c3)nc3ccccn23)n1` [Example 73, 4-{2-[4-(benzyloxy)-3-methoxyphenyl]imidazo[1,2-a]pyridin-3-yl}-N-(2-methoxy-5-thiomorpholin-4-ylphenyl)pyrimidin-2-amine] reads 101 to 500 nM; that for `COc1ccc(N2CCS(=O)(=O)CC2)cc1Nc1nccc(-c2c(-c3ccc(OCc4ccccc4)c(OC)c3)nc3ccccn23)n1` [Example 74, 4-{2-[4-(benzyloxy)-3-methoxyphenyl]imidazo[1,2-a]pyridin-3-yl}-N-[5-(1,1-dioxidothiomorpholin-4-yl)-2-methoxyphenyl]pyrimidin-2-amine], below 25 nM. Consider `CN(C)CCc1cccc(Nc2nccc(-c3c(-c4ccc(OCc5ccccc5)cc4)nn4ccccc34)n2)c1` [Example 75, 4-{2-[4-(benzyloxy)phenyl]pyrazolo[1,5-a]pyridin-3-yl}-N-{3-[2-(dimethylamino)ethyl]phenyl}pyrimidin-2-amine], for which the half-inhibitory concentration (IC50) was below 25 nM.

As to `CN(C)CCc1cccc(Nc2nccc(-c3c(-c4ccc(OCc5ccccc5)cc4)nn4ncccc34)n2)c1` [Example 76, 4-{2-[4-(benzyloxy)phenyl]pyrazolo[1,5-b]pyridazin-3-yl}-N-{3-[2-(dimethylamino)ethyl]phenyl}pyrimidin-2-amine], the IC50 was below 25 nM. Turning to `CN(C)CCc1cccc(Nc2nccc(-c3c(-c4ccc(OCc5ccccc5)cc4)nn4cc(F)ccc34)n2)c1` [Example 77, 4-{2-[4-(benzyloxy)phenyl]-6-fluoropyrazolo[1,5-a]pyridin-3-yl}-N-{3-[2-(dimethylamino)ethyl]phenyl}pyrimidin-2-amine], the IC50 was above 1000 nM.

Turning to `c1ccc(COc2ccc(-c3nc4sccn4c3-c3ccnc(Nc4ccccc4)n3)cc2)cc1` [Example 78, 4-{6-[4-(benzyloxy)phenyl]imidazo[2,1-b][1,3]thiazol-5-yl}-N-phenylpyrimidin-2-amine], the IC50 was above 1000 nM. Then `COc1ccccc1Nc1nccc(-c2c(-c3ccc(OCc4ccccc4)cc3)nc3sccn23)n1` [Example 79, 4-{6-[4-(benzyloxy)phenyl]imidazo[2,1-b][1,3]thiazol-5-yl}-N-(2-methoxyphenyl)pyrimidin-2-amine], with above 1000 nM.
